# According to BindingDB's records for doi:10.1021/bi990204w (National Institute of Diabetes and Digestive and Kidney …, 1999):
# Where “and” joins values, the source holds several entries; their conditions need not be identical. Identical values can stand only once. Where a SMILES comes first, the peptide text is derived from it. Bridges are numbered along the chain shown (N, C = ends). [ ]: non-standard residue; d: D form. The star is where a group is joined. X1 = CC(C)C[C@@H](CN[C@@H](CC(C)C)C(N)=O)N*; 2Nal = N[C@@H](Cc1ccc2ccccc2c1)C(=O)O; d2Nal = N[C@H](Cc1ccc2ccccc2c1)C(=O)O; pGlu = O=C1CC[C@@H](C(=O)O)N1; Nle = CCCC[C@H](N)C(=O)O; βAla = NCCC(=O)O
# Experiments:
# [1] = target: T1, Bombesin receptor subtype-3 (Homo sapiens, UniProt P32247)
# T1 sequence (P32247 whole entry): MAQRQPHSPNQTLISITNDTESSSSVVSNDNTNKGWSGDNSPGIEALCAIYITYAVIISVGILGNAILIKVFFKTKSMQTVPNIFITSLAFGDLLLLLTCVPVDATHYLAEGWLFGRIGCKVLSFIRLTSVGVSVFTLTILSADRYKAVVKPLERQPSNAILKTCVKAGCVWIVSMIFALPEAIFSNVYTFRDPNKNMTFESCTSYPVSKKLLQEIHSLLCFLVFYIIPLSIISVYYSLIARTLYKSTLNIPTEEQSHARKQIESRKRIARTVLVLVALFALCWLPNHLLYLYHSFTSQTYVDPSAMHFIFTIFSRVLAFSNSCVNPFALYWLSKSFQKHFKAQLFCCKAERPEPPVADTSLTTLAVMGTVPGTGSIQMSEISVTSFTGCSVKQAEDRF
# [2] = target: Gastrin-releasing peptide receptor (Mus musculus, UniProt P21729)
# [3] = target: Gastrin-releasing peptide receptor (Rattus norvegicus, UniProt P52500)
# Neuromedin-B receptor = target: T2, Neuromedin-B receptor (Rattus norvegicus, UniProt P24053)
# T2 sequence (P24053 whole entry): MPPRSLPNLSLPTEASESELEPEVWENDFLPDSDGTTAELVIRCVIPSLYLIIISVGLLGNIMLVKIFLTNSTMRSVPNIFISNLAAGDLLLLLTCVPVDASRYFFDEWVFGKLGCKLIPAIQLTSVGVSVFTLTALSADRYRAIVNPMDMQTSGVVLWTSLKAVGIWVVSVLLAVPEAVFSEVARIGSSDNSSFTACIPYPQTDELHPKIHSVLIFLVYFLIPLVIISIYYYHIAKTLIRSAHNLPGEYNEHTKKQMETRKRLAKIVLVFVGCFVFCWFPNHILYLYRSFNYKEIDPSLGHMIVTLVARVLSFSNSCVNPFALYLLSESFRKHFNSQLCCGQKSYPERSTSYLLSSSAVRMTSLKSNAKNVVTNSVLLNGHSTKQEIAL
# Gastrin-releasing peptide receptor (Mus musculus, UniProt P21729), sequence (P21729 whole entry): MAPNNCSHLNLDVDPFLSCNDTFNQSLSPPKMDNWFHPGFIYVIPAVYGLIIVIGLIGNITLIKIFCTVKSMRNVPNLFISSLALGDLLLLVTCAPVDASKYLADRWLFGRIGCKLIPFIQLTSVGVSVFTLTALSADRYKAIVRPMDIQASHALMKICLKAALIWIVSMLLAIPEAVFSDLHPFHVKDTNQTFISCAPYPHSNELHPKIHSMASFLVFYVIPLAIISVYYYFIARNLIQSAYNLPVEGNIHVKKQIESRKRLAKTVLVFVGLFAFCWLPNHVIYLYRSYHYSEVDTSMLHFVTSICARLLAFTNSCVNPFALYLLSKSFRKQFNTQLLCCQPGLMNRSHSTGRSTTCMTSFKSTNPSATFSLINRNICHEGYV
# Gastrin-releasing peptide receptor (Rattus norvegicus, UniProt P52500), sequence (P52500 whole entry N28S): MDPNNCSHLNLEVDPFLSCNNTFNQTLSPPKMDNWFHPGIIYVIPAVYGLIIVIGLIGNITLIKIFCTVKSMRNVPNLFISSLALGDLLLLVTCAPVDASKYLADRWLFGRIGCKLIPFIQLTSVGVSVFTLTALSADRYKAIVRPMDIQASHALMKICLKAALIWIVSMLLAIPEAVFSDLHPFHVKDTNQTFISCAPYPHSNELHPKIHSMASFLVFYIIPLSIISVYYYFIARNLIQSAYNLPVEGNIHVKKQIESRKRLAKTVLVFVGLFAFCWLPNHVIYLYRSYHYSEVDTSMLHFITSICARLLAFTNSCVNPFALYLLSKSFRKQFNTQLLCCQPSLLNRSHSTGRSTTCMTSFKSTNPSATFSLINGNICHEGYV
Molecule,Ki [1] [nM],Ki [2],Ki [3] [nM],Ki (Neuromedin-B receptor) [nM]
"CCCC[C@H](NC(=O)[C@H](Cc1ccccc1)NC(=O)[C@H](Cc1c[nH]cn1)NC(=O)CCNC(=O)[C@@H](NC(=O)[C@H](C)NC(=O)[C@H](Cc1c[nH]c2ccccc12)NC(=O)[C@H](CCC(N)=O)NC(=O)[C@H](N)Cc1ccccc1)C(C)C)C(N)=O [DPhe6,BetaAla11,Phe13,Nle14-Bn(6-14)] (H-[dF]QWAV[βAla]HF[Nle]-NH2)",8.9,0.26 nM and 0.24 nM and 0.19 nM and 0.11 nM,0.99,0.36
CC(C)[C@@H]1NC(=O)[C@H](CCCCN)NC(=O)[C@@H](Cc2c[nH]c3ccccc23)NC(=O)[C@H](Cc2ccc(O)cc2)NC(=O)[C@H](NC(=O)[C@H](N)Cc2ccc3ccccc3c2)CSSC[C@@H](C(=O)N[C@@H](Cc2ccc3ccccc3c2)C(N)=O)NC1=O [H-Nal-cyclo[DCys-Tyr-DTrp-Lys-Val-Cys]-Nal-NH2] (H-[d2Nal][dC]Y[dW]KVC[2Nal]-NH2; disulfide 2-7),2800,–,> 10000,220
CSCC[C@H](NC(=O)[C@H](CC(C)C)NC(=O)[C@H](CO)NC(=O)CNC(=O)[C@@H](NC(=O)[C@H](C)NC(=O)[C@H](Cc1c[nH]c2ccccc12)NC(=O)[C@H](CC(C)C)NC(=O)[C@@H]1CCC(=O)N1)C(C)C)C(N)=O [Leu8-phyllolitorin] ([pGlu]LWAVGSLM-NH2),5400,–,420,> 10000
"CC(C)C[C@@H](CN[C@@H](CC(C)C)C(N)=O)NC(=O)[C@H](Cc1cnc[nH]1)NC(=O)CNC(=O)[C@@H](NC(=O)[C@H](C)NC(=O)[C@H](Cc1c[nH]c2ccccc12)NC(=O)[C@H](CCC(N)=O)NC(=O)[C@H](CC(N)=O)NC(=O)CNC(=O)[C@H](CC(C)C)NC(=O)[C@H](CCCN=C(N)N)NC(=O)[C@H](CCC(N)=O)NC(=O)[C@@H]1CCC(=O)N1)C(C)C [Leu13,Psi(CH2NH),Leu14-BN] ([pGlu]QRLGNQWAVGH-X1)",> 10000,–,430,> 10000
CSCCC(NC(=O)C(CC(C)C)NC(=O)C(Cc1cnc[nH]1)NC(=O)CNC(=O)C(NC(=O)C(C)NC(=O)C(Cc1c[nH]c2ccccc12)NC(=O)C(Cc1cnc[nH]1)NC(=O)C(CC(N)=O)NC(=O)CN)C(C)C)C(N)=O (stereo not drawn) [NSC_5486814],> 10000,–,20,140
CSCC[C@H](NC(=O)[C@H](Cc1ccccc1)NC(=O)[C@H](CO)NC(=O)CNC(=O)[C@@H](NC(=O)[C@H](C)NC(=O)[C@H](Cc1c[nH]c2ccccc12)NC(=O)[C@H](CC(C)C)NC(=O)[C@@H]1CCC(=O)N1)C(C)C)C(N)=O [NSC_5748287],2100,–,240,47
"CSCC[C@H](NC(=O)[C@@H](Cc1c[nH]c2ccccc12)NC(=O)[C@@H](Cc1c[nH]c2ccccc12)NC(=O)[C@H](Cc1ccccc1)NC(=O)[C@@H](Cc1c[nH]c2ccccc12)NC(=O)[C@H](CCC(N)=O)NC(=O)[C@H](CCC(N)=O)NC(=O)[C@H]1CCCN1)C(N)=O [Substance P(4-11),[Dpro4,Dtrp7,9,10]] (H-[dP]QQ[dW]F[dW][dW]M-NH2)",2300,–,> 10000,2500
"CC(C)C[C@H](NC(=O)[C@H](CC(C)C)NC(=O)[C@@H](Cc1c[nH]c2ccccc12)NC(=O)[C@H](Cc1ccccc1)NC(=O)[C@@H](Cc1c[nH]c2ccccc12)NC(=O)[C@H](CCC(N)=O)NC(=O)[C@H](CCC(N)=O)NC(=O)[C@@H]1CCCN1C(=O)[C@H](CCCCN)NC(=O)[C@@H]1CCCN1C(=O)[C@H](N)CCCN=C(N)N)C(N)=O [Substance P,[DArg1,DTrp7,9,Leu11]] (H-[dR]PKPQQ[dW]F[dW]LL-NH2)",> 10000,–,11300,4100
H-EGGGPQWAVGHFM-NH2 [PG-L],5300,–,3,210
